Key:
Assay in all cases: combination Emax (second highest fraction inhibited in the dose matrix, 72 h); higher = more inhibition; extreme values may be limits of the assay
[1] = system: SW1088 (Low Grade Glioma)
In short: (§1)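 Bliss excess equals the observed combination effect minus the expected value EA + EB − EA·EB, where EA and EB are the effects of each agent alone. Combination Emax is the second-highest inhibition within the matrix. Inhibition was scaled from CellTiter-Glo 2.0 luminescence, with 0 set by vehicle wells and 1 by blank wells, after 72 hours of two-drug dosing of cells plated in 1536-well plates.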

[2] = system: DOV13 (Ovarian Carcinoma)
In short: as §1

[3] = system: SW1783 (Low Grade Glioma)
In short: as §1

[4] = system: KATOIII (Gastric Carcinoma)
In short: as §1

SK-N-FI (Neuroblastoma) = system: SK-N-FI (Neuroblastoma)
In short: as §1

[5] = system: KARPAS-1106P (B-Cell Non-Hodgkin's Lymphoma)
In short: as §1

[6] = system: 697 (B-Lymphoblastic Leukemia)
In short: as §1

[7] = system: NCI-H1793 (Lung Adenocarcinoma)
In short: as §1

[8] = system: SW780 (Bladder Carcinoma)
In short: as §1

[9] = system: LS-513 (Colorectal Carcinoma)
In short: as §1

[10] = system: NCI-H1299 (Non-Small Cell Lung Carcinoma)
In short: as §1

[11] = system: JiyoyeP-2003 (Burkitt's Lymphoma)
In short: as §1

[12] = system: NCI-H1694 (Small Cell Lung Carcinoma)
In short: as §1

[13] = system: SW1990 (Pancreatic Carcinoma)
In short: as §1

[14] = system: MDA-MB-157 (Breast Carcinoma)
In short: as §1

[15] = system: MFH-ino (Other Solid Carcinomas)
In short: as §1

[16] = system: C3A (Hepatocellular Carcinoma)
In short: as §1

SN12C (Kidney Carcinoma) = system: SN12C (Kidney Carcinoma)
In short: as §1

[17] = system: TE-5 (Esophageal Squamous Cell Carcinoma)
In short: as §1

[18] = system: SW756 (Cervical Carcinoma)
In short: as §1

SMILES	combination Emax [1]	combination Emax [2]	combination Emax [3]	combination Emax [4]	combination Emax (SK-N-FI (Neuroblastoma))	combination Emax [5]	combination Emax [6]	combination Emax [7]	combination Emax [8]	combination Emax [9]	combination Emax [10]	combination Emax [11]	combination Emax [12]	combination Emax [13]	combination Emax [14]	combination Emax [15]	combination Emax [16]	combination Emax (SN12C (Kidney Carcinoma))	combination Emax [17]	combination Emax [18]
Cc1c2c(nn1C)CSCc1cc(n(C)n1)CSc1cc(c3ccccc3c1)OCCCc1c(C(=O)O)n(C)c3c-2c(Cl)ccc13 [AZD5991] + CC1(C)CCC(CN2CCN(c3ccc(C(=O)NS(=O)(=O)c4ccc(NCC5CCOCC5)c([N+](=O)[O-])c4)c(Oc4cnc5[nH]ccc5c4)c3)CC2)=C(c2ccc(Cl)cc2)C1 [Venetoclax] (first compound max 1 µM, 7x7, partner max 1 µM)	0.248	0.221	0.444	0.101	0.65	0.935	1	0.174	0.386	0.18	0.258	0.732	0.988	0.164	0.862	0.182	0.181	0.21	0.525	0.185
Cc1c2c(nn1C)CSCc1cc(n(C)n1)CSc1cc(c3ccccc3c1)OCCCc1c(C(=O)O)n(C)c3c-2c(Cl)ccc13 [AZD5991] + CCN(CCO)CCCOc1ccc2c(Nc3cc(CC(=O)Nc4cccc(F)c4)[nH]n3)ncnc2c1 [AZD2811] (first compound max 1 µM, 7x7, partner max 1 µM)	0.494	0.603	0.246	0.116	0.335	0.955	1	0.2	0.213	0.623	0.406	0.803	0.985	0.298	0.846	0.251	0.32	0.387	0.261	0.204
Cc1c2c(nn1C)CSCc1cc(n(C)n1)CSc1cc(c3ccccc3c1)OCCCc1c(C(=O)O)n(C)c3c-2c(Cl)ccc13 [AZD5991] + CN(C)CCCOc1ccc(-c2ccc3ncc4c(c3c2)n(C2CCOCC2)c(=O)n4C)cn1 [AZD0156] (first compound max 1 µM, 7x7, partner max 1 µM)	0.242	0.324	0.218	0.182	0.443	0.925	1	0.302	0.206	0.275	0.368	0.756	0.98	0.241	0.69	0.22	0.198	0.222	0.266	0.203
Cc1c2c(nn1C)CSCc1cc(n(C)n1)CSc1cc(c3ccccc3c1)OCCCc1c(C(=O)O)n(C)c3c-2c(Cl)ccc13 [AZD5991] + C[C@@H]1COCCN1C2=NC(=NC(=C2)C3(CC3)[S@](=N)(=O)C)C4=C5C=CNC5=NC=C4 [AZD6738] (first compound max 1 µM, 7x7, partner max 10 µM)	0.565	0.926	0.441	0.373	0.815	0.965	1	0.488	0.255	0.752	0.71	0.965	1	0.491	0.966	0.524	0.437	0.228	0.494	0.283
Cc1c2c(nn1C)CSCc1cc(n(C)n1)CSc1cc(c3ccccc3c1)OCCCc1c(C(=O)O)n(C)c3c-2c(Cl)ccc13 [AZD5991] + C[C@@H](Nc1cc(F)cc(F)c1)c1cc(C(=O)N(C)C)cc2c(=O)cc(N3CCOCC3)oc12 [AZD8186] (first compound max 1 µM, 7x7, partner max 3 µM)	0.533	0.381	0.4	0.175	0.565	0.997	0.978	0.263	0.228	0.255	0.386	0.718	0.953	0.21	0.876	0.234	0.292	0.246	0.191	0.217
Cc1c2c(nn1C)CSCc1cc(n(C)n1)CSc1cc(c3ccccc3c1)OCCCc1c(C(=O)O)n(C)c3c-2c(Cl)ccc13 [AZD5991] + Cn1cnc2c(F)c(Nc3ccc(Br)cc3Cl)c(C(=O)NOCCO)cc21 [Selumetinib] (first compound max 1 µM, 7x7, partner max 3 µM)	0.229	0.252	0.211	0.178	0.565	0.979	1	0.244	0.333	0.796	0.3	0.675	0.986	0.41	0.641	0.358	0.487	0.246	0.287	0.336
C[C@@H]1COCCN1c1cc(C2([S@](C)(=N)=O)CC2)nc(-c2ccnc3[nH]ccc23)n1 [AZD6738] + O=C(c1cc(Cc2n[nH]c(=O)c3ccccc23)ccc1F)N1CCN(C(=O)C2CC2)CC1 [Olaparib] (first compound max 10 µM, 7x7, partner max 10 µM)	0.501	0.915	0.407	0.341	0.701	0.672	1	0.379	0.181	0.722	0.666	0.944	0.734	0.471	0.85	0.576	0.429	0.249	0.442	0.228
Cc1cc2ncnn2cc1Nc1ncc2c(n1)n(C1CCOCC1)c(=O)n2C [AZD7648] + C=CCn1c(=O)c2cnc(Nc3ccc(N4CCN(C)CC4)cc3)nc2n1-c1cccc(C(C)(C)O)n1 [AZD1775] (first compound max 10 µM, partner max 1 µM)	0.504	0.839	0.322	0.391	0.591	0.901	1	0.416	0.233	0.776	0.72	0.929	0.383	0.467	0.649	0.39	0.521	0.313	0.515	0.442
Cc1cc2ncnn2cc1Nc1ncc2c(n1)n(C1CCOCC1)c(=O)n2C [AZD7648] + CCN(CCO)CCCOc1ccc2c(Nc3cc(CC(=O)Nc4cccc(F)c4)[nH]n3)ncnc2c1 [AZD2811] (first compound max 10 µM, 7x7, partner max 1 µM)	0.686	0.426	0.293	0.263	0.274	0.526	1	0.26	0.29	0.507	0.37	0.481	0.273	0.201	0.234	0.415	0.269	0.262	0.394	0.108
Cc1cc2ncnn2cc1Nc1ncc2c(n1)n(C1CCOCC1)c(=O)n2C [AZD7648] + CN(C)CCCOc1ccc(-c2ccc3ncc4c(c3c2)n(C2CCOCC2)c(=O)n4C)cn1 [AZD0156] (first compound max 10 µM, 7x7, partner max 1 µM)	0.419	0.325	0.277	0.291	0.353	0.423	0.486	0.333	0.18	0.247	0.352	0.394	0.165	0.212	0.209	0.341	0.251	0.262	0.41	0.205
Cc1cc2ncnn2cc1Nc1ncc2c(n1)n(C1CCOCC1)c(=O)n2C [AZD7648] + C[C@@H]1COCCN1C2=NC(=NC(=C2)C3(CC3)[S@](=N)(=O)C)C4=C5C=CNC5=NC=C4 [AZD6738] (first compound max 10 µM, 7x7, partner max 10 µM)	0.671	0.838	0.437	0.407	0.71	0.756	1	0.36	0.303	0.762	0.644	0.929	0.659	0.471	0.881	0.499	0.548	0.313	0.565	0.401
Cc1cc2ncnn2cc1Nc1ncc2c(n1)n(C1CCOCC1)c(=O)n2C [AZD7648] + O=C(c1cc(Cc2n[nH]c(=O)c3ccccc23)ccc1F)N1CCN(C(=O)C2CC2)CC1 [Olaparib] (first compound max 10 µM, 7x7, partner max 10 µM)	0.303	0.386	0.14	0.145	0.213	0.41	0.988	0.371	0.165	0.19	0.249	0.423	0.152	0.11	0.0869	0.262	0.232	0.138	0.162	0.157
NC1(C(=O)N[C@@H](CCO)c2ccc(Cl)cc2)CCN(c2ncnc3[nH]ccc23)CC1 [Capivasertib] + CC(=O)c1c(C)c2cnc(Nc3ccc(N4CCNCC4)cn3)nc2n(C2CCCC2)c1=O [Palbociclib] (first compound max 10 µM, 7x7, partner max 10 µM)	0.654	0.588	0.407	0.311	0.413	0.761	0.838	0.361	0.248	0.675	0.465	0.683	0.141	0.214	0.24	0.483	0.556	0.17	0.359	0.389
